From US8741934B2, “Inhibitors of ion channels” (Pfizer Limited, priority 2007, dated 2014)

Key:
[1] = assay type: in vivo, rat; conditions: in contrast to compounds I, II and III
Method: The bioanalysis of plasma samples from rats dosed with LC/MS/MS detection of sulfathiazole as measured against an internal standard. Extraction was performed on-line with a turbulent flow chromatography system (HTLC). The transfer from the HTLC to the analytical HPLC is automatic. The mass spectrometer was operated in API ionization mode with an electrospray interface between the analytical HPLC and the mass spectrometer. Multiple reaction monitoring (mrm) detection was used for each analyte on a triple quadrupole mass spectrometer.
2. Materials • HPLC grade reagents were used such as: • Water (Hydro Services Picosystem water filtration) • Methanol (Fisher Ultima) • Ammonium formate (Sigma), and • Formic acid (Sigma) • Rat plasma • sulfathiazole • internal standard B. Instrument Conditions • Mass spectrometer: • Positive ion, mrm detection at • m/z 256 to m/z 108 for ICA-000024 • m/z 342 to m/z 218 for ICA-18756 (internal standard) • 100 ms Dwell time • Cone voltage, capillary voltage and collision energy were optimized for each compound • Source Temperature: 125 C, Desolvation temperature: 325 C • Cone gas at 73 L/hr, and Desolvation gas at 740 L/hr C. Chromatography Conditions
1. Mobile Phases: • A: 98% water:2% methanol with • 4 mM ammonium formate, 0.1% formic acid • B: 98% methanol:2% water with • 4 mM ammonium formate, 0.1% formic acid
2. HTLC Turbulent Flow Quaternary Pump • Column: Cohesive Cyclone Turbo-Flow • Timetable:
3. Analytical Binary Pump • Column: Phenomenex Synergi Hydro-RP 4u 50 mm×2.1 mm • Timetable:
4. Injection Volume • 20 μL D. Preparation of Standards and Samples
Plasma standards and samples were prepared for injection according to the standard operating procedure, HTLC Plasma Analysis by LC/MS/MS.

hSCN3A sodium channels = biological target: T1, hSCN3A sodium channels (Homo sapiens, UniProt Q9NY46); assay: hSCN3A electrophysiology, whole-cell patch-clamp or PatchXpress 7000, estimated IC-50 (Table B); assay type: cell-based; conditions: estimated IC-50; hSCN3A cells, whole-cell patch-clamp or PatchXpress 7000; read-out: SCN3A EIC-50
T1 construct: expressed in transfected cells
How it was run: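 Stably transfected HEK cells, whole-cell voltage clamp at 22-24° C, manual or PatchXpress 7000. Cells held at empirically determined inactivation V1/2; current evoked by 20 msec step to 0 mV after 8 sec prepulse to V1/2.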

Nav1.2 = Nav1.2 (Homo sapiens, UniProt Q99250); conditions: read-out: TTX IC-50; cited from earlier work
Nav1.9 = Nav1.9 (Homo sapiens, UniProt Q9UI33); conditions: read-out: TTX IC-50; cited from earlier work
Nav1.1 = Nav1.1 (Homo sapiens, UniProt P35498); conditions: read-out: TTX IC-50; cited from earlier work
Nav1.3 = Nav1.3 (Homo sapiens, UniProt Q9NY46); conditions: read-out: TTX IC-50; cited from earlier work
Nav1.8 = Nav1.8 (Homo sapiens, UniProt Q9Y5Y9); conditions: read-out: TTX IC-50; cited from earlier work
Nav1.6 = Nav1.6 (Homo sapiens, UniProt Q9UQD0); conditions: read-out: TTX IC-50; cited from earlier work

T1 sequence (Q9NY46 whole entry): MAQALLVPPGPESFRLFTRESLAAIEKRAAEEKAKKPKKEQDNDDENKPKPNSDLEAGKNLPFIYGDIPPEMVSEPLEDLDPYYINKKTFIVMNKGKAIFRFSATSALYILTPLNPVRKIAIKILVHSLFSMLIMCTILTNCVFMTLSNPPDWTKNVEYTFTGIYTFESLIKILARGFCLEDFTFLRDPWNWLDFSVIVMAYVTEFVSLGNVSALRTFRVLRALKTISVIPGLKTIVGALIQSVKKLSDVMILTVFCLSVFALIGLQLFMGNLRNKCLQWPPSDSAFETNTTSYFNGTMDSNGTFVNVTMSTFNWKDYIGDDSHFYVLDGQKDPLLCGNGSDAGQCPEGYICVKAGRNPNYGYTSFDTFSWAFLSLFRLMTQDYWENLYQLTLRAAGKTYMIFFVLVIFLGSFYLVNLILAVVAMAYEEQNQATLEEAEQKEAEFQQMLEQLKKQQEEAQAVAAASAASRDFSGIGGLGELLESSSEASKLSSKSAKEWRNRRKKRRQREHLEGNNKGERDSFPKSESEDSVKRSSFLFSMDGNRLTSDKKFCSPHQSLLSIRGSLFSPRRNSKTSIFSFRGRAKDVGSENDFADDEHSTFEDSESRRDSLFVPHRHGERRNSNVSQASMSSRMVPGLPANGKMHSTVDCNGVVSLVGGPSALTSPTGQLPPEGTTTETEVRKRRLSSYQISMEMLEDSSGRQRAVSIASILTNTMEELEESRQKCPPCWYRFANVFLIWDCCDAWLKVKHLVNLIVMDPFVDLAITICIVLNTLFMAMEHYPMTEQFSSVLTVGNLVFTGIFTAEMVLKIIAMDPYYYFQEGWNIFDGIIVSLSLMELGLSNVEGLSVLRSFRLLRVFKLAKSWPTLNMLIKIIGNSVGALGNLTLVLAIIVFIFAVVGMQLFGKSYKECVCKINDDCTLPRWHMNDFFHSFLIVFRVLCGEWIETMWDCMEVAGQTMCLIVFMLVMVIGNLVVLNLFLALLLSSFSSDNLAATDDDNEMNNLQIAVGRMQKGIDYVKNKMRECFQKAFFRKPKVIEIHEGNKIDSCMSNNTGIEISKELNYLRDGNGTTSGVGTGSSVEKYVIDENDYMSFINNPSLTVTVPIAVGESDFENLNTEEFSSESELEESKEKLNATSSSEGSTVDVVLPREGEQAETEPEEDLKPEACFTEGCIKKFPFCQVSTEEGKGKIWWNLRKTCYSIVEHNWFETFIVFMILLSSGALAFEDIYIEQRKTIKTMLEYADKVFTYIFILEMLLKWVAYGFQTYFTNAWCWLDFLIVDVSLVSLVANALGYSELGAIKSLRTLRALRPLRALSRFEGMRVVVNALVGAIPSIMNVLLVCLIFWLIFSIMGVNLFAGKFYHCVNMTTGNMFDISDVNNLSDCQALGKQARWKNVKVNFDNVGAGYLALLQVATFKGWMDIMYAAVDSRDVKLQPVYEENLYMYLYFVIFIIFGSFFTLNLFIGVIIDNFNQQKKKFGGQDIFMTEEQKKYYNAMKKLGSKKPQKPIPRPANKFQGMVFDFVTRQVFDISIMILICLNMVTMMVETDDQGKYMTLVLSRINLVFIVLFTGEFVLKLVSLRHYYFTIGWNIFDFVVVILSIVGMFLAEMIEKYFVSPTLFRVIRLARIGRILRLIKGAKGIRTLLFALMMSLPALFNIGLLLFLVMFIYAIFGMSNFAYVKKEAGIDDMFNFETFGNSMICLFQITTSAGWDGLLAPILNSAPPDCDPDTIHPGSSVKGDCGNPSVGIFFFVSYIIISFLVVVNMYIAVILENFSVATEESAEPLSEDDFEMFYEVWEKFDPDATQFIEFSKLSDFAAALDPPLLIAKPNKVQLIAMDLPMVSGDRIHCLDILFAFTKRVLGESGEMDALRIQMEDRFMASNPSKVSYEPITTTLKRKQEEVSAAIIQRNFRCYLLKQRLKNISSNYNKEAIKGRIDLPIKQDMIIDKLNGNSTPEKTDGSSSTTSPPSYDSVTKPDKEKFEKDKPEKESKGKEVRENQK
Chain of Nav1.3 (Q9NY46 whole entry, looked up): as the sequence (Q9NY46 whole entry) above
Chain of Nav1.2 (Q99250 whole entry, looked up): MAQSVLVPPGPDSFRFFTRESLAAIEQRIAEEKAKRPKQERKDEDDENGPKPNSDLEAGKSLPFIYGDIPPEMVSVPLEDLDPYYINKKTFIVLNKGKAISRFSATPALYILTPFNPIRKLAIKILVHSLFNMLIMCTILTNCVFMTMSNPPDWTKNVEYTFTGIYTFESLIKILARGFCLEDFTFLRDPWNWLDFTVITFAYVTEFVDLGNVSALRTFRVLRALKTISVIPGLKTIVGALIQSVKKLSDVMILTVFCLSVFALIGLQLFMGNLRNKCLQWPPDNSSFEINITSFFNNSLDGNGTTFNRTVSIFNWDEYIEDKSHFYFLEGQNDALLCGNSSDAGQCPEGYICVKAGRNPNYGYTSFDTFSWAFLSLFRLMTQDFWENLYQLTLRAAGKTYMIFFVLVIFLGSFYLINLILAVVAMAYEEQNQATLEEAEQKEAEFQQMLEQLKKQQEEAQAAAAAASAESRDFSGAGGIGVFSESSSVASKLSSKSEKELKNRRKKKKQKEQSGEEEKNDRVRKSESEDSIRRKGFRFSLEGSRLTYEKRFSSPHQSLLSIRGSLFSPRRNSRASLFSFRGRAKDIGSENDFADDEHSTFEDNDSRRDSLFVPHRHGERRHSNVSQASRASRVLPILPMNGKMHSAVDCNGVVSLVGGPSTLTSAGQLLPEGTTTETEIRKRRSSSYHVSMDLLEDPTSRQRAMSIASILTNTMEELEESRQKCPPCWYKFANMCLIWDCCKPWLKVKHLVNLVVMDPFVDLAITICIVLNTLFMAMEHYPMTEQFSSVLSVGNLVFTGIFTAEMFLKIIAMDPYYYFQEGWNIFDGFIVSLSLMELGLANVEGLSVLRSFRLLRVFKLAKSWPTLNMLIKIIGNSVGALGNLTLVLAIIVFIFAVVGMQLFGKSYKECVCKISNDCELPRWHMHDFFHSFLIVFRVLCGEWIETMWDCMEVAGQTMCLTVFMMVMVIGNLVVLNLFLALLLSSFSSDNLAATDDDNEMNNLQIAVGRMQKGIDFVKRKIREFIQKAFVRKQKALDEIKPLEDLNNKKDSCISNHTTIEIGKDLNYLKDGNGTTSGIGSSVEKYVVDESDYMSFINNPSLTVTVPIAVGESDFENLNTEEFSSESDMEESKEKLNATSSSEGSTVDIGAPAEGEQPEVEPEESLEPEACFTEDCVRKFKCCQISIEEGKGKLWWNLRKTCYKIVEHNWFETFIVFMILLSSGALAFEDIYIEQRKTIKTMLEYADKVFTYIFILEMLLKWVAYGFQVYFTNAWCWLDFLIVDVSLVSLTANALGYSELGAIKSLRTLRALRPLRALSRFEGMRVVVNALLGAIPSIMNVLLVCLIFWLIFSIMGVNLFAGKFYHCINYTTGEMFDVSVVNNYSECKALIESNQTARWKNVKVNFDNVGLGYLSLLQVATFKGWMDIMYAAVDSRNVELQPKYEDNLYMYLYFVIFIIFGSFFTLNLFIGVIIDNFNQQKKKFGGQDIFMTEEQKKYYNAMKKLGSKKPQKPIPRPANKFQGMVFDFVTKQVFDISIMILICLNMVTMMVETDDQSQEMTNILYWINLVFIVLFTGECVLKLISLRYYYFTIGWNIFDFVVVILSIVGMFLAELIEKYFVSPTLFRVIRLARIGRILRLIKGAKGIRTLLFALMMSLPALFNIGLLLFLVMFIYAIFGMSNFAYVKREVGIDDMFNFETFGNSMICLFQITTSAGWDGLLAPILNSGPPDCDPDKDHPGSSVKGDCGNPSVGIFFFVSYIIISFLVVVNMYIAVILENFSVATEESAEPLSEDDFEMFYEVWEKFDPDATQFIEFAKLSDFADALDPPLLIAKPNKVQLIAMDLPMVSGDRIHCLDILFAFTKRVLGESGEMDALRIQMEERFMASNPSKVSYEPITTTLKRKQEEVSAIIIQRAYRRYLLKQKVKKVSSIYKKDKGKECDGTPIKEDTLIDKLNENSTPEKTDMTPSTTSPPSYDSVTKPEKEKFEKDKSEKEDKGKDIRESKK

Structure (SMILES)	metabolism to the aniline containing sulfathiazole [1]	IC50 (hSCN3A sodium channels)	IC50 (Nav1.2)	IC50 (Nav1.9)	IC50 (Nav1.1)	IC50 (Nav1.3)	IC50 (Nav1.8)	IC50 (Nav1.6)
CC(C)(C)CCNC(=O)c1ccc(S(=O)(=O)Nc2nccs2)cc1 [Example 418, N-(3,3-dimethylbutyl)-4-[(1,3-thiazol-2-ylamino)sulfonyl]benzamide]	do not metabolize to form the aniline containing sulfathiazole	2.74 µM						
O=C(NCc1ccc(Cl)cc1)c1ccc(S(=O)(=O)Nc2nccs2)cc1 [Example 100, N-(4-chlorobenzyl)-4-[(1,3-thiazol-2-ylamino)sulfonyl]benzamide]	do not metabolize to form the aniline containing sulfathiazole	0.43 µM						
O=C(NCCOc1ccc(Cl)cc1)c1ccc(S(=O)(=O)Nc2nccs2)cc1 [Example 186, N-[2-(4-chlorophenoxy)ethyl]-4-[(1,3-thiazol-2-ylamino)sulfonyl]benzamide]	do not metabolize to form the aniline containing sulfathiazole	0.42 µM						
NC1=N[C@H](O)[C@H]2[C@H]3O[C@]4(O)O[C@@H]([C@@H](O)[C@@]2(N1)[C@@H]4O)[C@]3(O)CO [TTX, tetrodotoxin]			0.01 µM	1 µM	0.01 µM	0.015 µM	50 µM	0.006 µM
